Experimental data published in DBAASP.
Converted amounts (≈) assume the structure as drawn.

How the values were obtained:
Assay in all cases: ≥ marks a high value that may be exact or a test limit, other limits are often not marked, values filed in µg/mL are converted to µM
Bacillus subtilis = tested on: Bacillus subtilis
Staphylococcus aureus = tested on: Staphylococcus aureus
Candida albicans = tested on: Candida albicans
Escherichia coli = tested on: Escherichia coli
[1] = tested on: Candida albicans ATCC 10231
[2] = tested on: Escherichia coli ATCC 25922
[3] = tested on: Pseudomonas aeruginosa ATCC 9027
[4] = tested on: Staphylococcus aureus ATCC 6538
[5] = tested on: Staphylococcus aureus ATCC 25923
[6] = tested on: Candida albicans ATCC 90028
[7] = tested on: Staphylococcus aureus ATCC 33591
[8] = tested on: Pseudomonas aeruginosa ATCC 27853
[9] = tested on: Klebsiella pneumoniae ATCC 700603
Acinetobacter baumannii = tested on: Acinetobacter baumannii
[10] = tested on: Bacillus subtilis ATCC 6633
[11] = tested on: Escherichia coli DH5alpha

`CC[C@H](C)[C@@H]1NC(=O)[C@H](CO)NC(=O)[C@H](CCCCN)NC(=O)[C@H]([C@@H](C)O)NC(=O)[C@H](Cc2c[nH]c3ccccc23)NC(=O)[C@@H](NC(=O)CNC(=O)[C@H](CCCCN)NC(=O)[C@H](CC(C)C)NC(=O)[C@H](C)NC(=O)[C@H](C)N)CSSC[C@@H](C(=O)N[C@@H](Cc2ccccc2)C(=O)NCC(=O)N[C@@H](CCCCN)C(=O)N[C@@H](CCCN=C(N)N)C(=O)O)NC(=O)[C@@H]2CCCN2C(=O)[C@H](CCCCN)NC(=O)[C@@H]2CCCN2C(=O)[C@@H]2CCCN2C1=O` [AALKGCWTKSIPPKPCFGKR] showed an MIC (Bacillus subtilis) of 0.845 µM (≈ 1.85 µg/mL), an MIC (Staphylococcus aureus) of 2.66 µM (≈ 5.82 µg/mL) and an MIC (Candida albicans) of 1.1 µM (≈ 2.4 µg/mL). The MIC (Escherichia coli) was 1.47 µM (≈ 3.21 µg/mL).
With `N[C@@H](CC(=O)O)C(=O)N[C@@H](Cc1ccc(O)cc1)C(=O)N[C@@H](CC(=O)O)C(=O)N[C@@H](CC(=O)O)C(=O)O` [DYDD] the MIC [1] was 8.58 mM (≈ 4520 µg/mL), the MIC [2] was 34300 µM (≈ 18100 µg/mL) and the MIC [3] was 17200 µM (≈ 9040 µg/mL).
In the case of `CC(C)C[C@H](NC(=O)[C@H](C)NC(=O)[C@H](C)NC(=O)[C@H](CCCCN)NC(=O)[C@H](C)NC(=O)[C@H](CC(C)C)NC(=O)[C@H](CCCCN)NC(=O)[C@H](CCCCN)NC(=O)[C@H](C)NC(=O)[C@H](CC(C)C)NC(=O)[C@H](CCCCN)NC(=O)[C@H](CCCCN)NC(=O)[C@H](C)NC(=O)[C@@H](N)Cc1ccccc1)C(N)=O` [FAKKLAKKLAKAAL], the MIC [3] is reported as 66.6 µM (≈ 99.9 µg/mL) and the MIC [4] is reported as 6.66 µM (≈ 9.99 µg/mL).
`CC(C)C[C@H](NC(=O)[C@H](CCCCN)NC(=O)[C@H](CCCCN)NC(=O)[C@H](C)NC(=O)[C@H](CC(C)C)NC(=O)[C@H](CCCCN)NC(=O)[C@H](CCCCN)NC(=O)[C@H](CC(C)C)NC(=O)[C@H](CCCCN)NC(=O)[C@H](CCCCN)NC(=O)[C@H](C)NC(=O)[C@@H](N)Cc1ccccc1)C(N)=O` [FAKKLKKLAKKL] was tested, and the MIC [3] was 141 µM (≈ 200 µg/mL) and the MIC [4] was 70.6 µM (≈ 99.9 µg/mL).
`CC[C@H](C)[C@H](NC(=O)[C@@H]1CCCN1C(=O)[C@H](CC(C)C)NC(=O)[C@@H](N)Cc1ccccc1)C(=O)N[C@@H](CC(C)C)C(=O)NCC(=O)N[C@@H](CCCCN)C(=O)N[C@@H](CC(C)C)C(=O)N[C@@H](CC(C)C)C(=O)N[C@@H](CO)C(=O)NCC(=O)N[C@@H](CC(C)C)C(=O)N[C@@H](CC(C)C)C(N)=O` [FLPILGKLLSGLL] gave an MIC [2] greater than 160 µM, an MIC [5] of 10 µM (≈ 13.8 µg/mL) and an MIC [6] of no less than 80 µM.
Molecule `CC[C@H](C)[C@H](NC(=O)CNC(=O)[C@H](CO)NC(=O)[C@H](CC(C)C)NC(=O)[C@H](CC(C)C)NC(=O)CN)C(=O)N[C@@H](CC(C)C)C(=O)NCC(=O)N[C@@H](C)C(=O)NCC(=O)N[C@@H](CCCCN)C(=O)N[C@@H](Cc1cnc[nH]1)C(=O)N[C@H](C(=O)N[C@H](C(=O)N[C@@H](CS)C(=O)NCC(=O)N[C@@H](CC(C)C)C(=O)N[C@@H](CO)C(=O)NCC(=O)N[C@@H](CC(C)C)C(=O)N[C@@H](CCCN=C(N)N)C(=O)O)C(C)C)[C@@H](C)CC` [GLLSGILGAGKHIVCGLSGLR] has an MIC (Bacillus subtilis) of 9.28 µM (≈ 18.8 µg/mL), an MIC (Staphylococcus aureus) of 4.64 µM (≈ 9.37 µg/mL) and an MIC (Candida albicans) of 0.544 µM (≈ 1.1 µg/mL). For the same molecule, the MIC (Escherichia coli) was 2.32 µM (≈ 4.68 µg/mL).
`C[C@H](NC(=O)[C@H](CCCN=C(N)N)NC(=O)[C@H](CCCN=C(N)N)NC(=O)[C@@H]1CCCN1C(=O)CNC(=O)[C@H](CCCN=C(N)N)NC(=O)[C@H](CCCN=C(N)N)NC(=O)CN)C(=O)N[C@@H](CC(N)=O)C(=O)N[C@@H](CCC(N)=O)C(=O)N[C@@H](CC(N)=O)C(=O)NCC(=O)N[C@H](C(=O)N[C@@H](CCCN=C(N)N)C(=O)N[C@@H](CCCN=C(N)N)C(=O)N[C@@H](CCCN=C(N)N)C(=O)N[C@@H](CCCN=C(N)N)C(=O)N[C@@H](CCCN=C(N)N)C(=O)N[C@@H](CCCN=C(N)N)C(=O)N[C@H](C(N)=O)[C@@H](C)O)[C@@H](C)O` [GRRGPRRANQNGTRRRRRRT] gave an MIC [2] of 25 µM (≈ 61.9 µg/mL), an MIC [7] of no less than 100 µM and an MIC [5] of 100 µM (≈ 248 µg/mL). The MIC [8] was 25 µM (≈ 61.9 µg/mL).
`CC[C@H](C)[C@H](N)C(=O)N[C@@H](CC(C)C)C(=O)N[C@@H](CCCCN)C(=O)N1CCC[C@H]1C(=O)N[C@@H](CCCCN)C(=O)N[C@@H](CC(C)C)C(=O)N[C@@H](Cc1c[nH]c2ccccc12)C(=O)N[C@@H](CCCCN)C(=O)N[C@@H](CC(C)C)C(=O)N[C@H](C(=O)N[C@H](C(=O)N[C@H](C(=O)N[C@@H](C)C(=O)N[C@@H](CCCN=C(N)N)C(=O)N[C@@H](CCCCN)C(=O)N[C@H](C(=O)N[C@H](C(=O)N[C@@H](CCCCN)C(=O)O)[C@@H](C)CC)[C@@H](C)CC)C(C)C)C(C)C)[C@@H](C)O` [ILKPKLWKLTVVARKIIK] was tested, and the MIC [9] was greater than 64 µM, the MIC [2] was 64 µM (≈ 137 µg/mL) and the MIC [5] was greater than 64 µM. It also gave an MIC [3] of 64 µM (≈ 137 µg/mL) and an MIC (Acinetobacter baumannii) of no less than 64 µM.
Work on `CC(C)C[C@H](NC(=O)[C@H](CCCCN)NC(=O)[C@H](CCCCN)NC(=O)[C@H](C)NC(=O)[C@H](CC(C)C)NC(=O)[C@H](CCCCN)NC(=O)[C@H](CCCCN)NC(=O)[C@H](CC(C)C)NC(=O)[C@H](CCCCN)NC(=O)[C@H](CCCCN)NC(=O)[C@H](C)NC(=O)[C@H](CC(C)C)NC(=O)[C@H](CCCCN)NC(=O)[C@H](CCCCN)NC(=O)[C@H](C)NC(=O)[C@H](Cc1ccccc1)NC(=O)[C@H](CCCCN)NC(=O)[C@H](CCCCN)NC(=O)[C@H](Cc1ccccc1)NC(=O)[C@H](CC(C)C)NC(=O)[C@H](CCCCN)NC(=O)[C@@H](NC(=O)[C@@H](N)CCCCN)[C@@H](C)O)C(=O)O` [KTKLFKKFAKKLAKKLKKLAKKL] yielded an MIC [3] of 36.6 µM (≈ 100 µg/mL) and an MIC [4] of 3.66 µM (≈ 10 µg/mL).
`CC[C@H](C)[C@H](NC(=O)[C@H](CCCN=C(N)N)NC(=O)[C@H](CC(C)C)NC(=O)[C@@H](NC(=O)[C@H](Cc1ccccc1)NC(=O)[C@H](CCCN=C(N)N)NC(=O)[C@H](C)NC(=O)[C@@H](N)CC(C)C)C(C)C)C(=O)N[C@@H](CC(C)C)C(=O)N[C@@H](CCCCN)C(=O)N[C@@H](Cc1ccc(O)cc1)C(=O)NCC(=O)N[C@@H](Cc1ccccc1)C(=O)N[C@@H](CCCCN)C(=O)O` [LARFVLRILKYGFK] showed an MIC [9] of 64 µM (≈ 110 µg/mL), an MIC [2] of 64 µM (≈ 110 µg/mL) and an MIC [5] of 32 µM (≈ 55.2 µg/mL). It also gave an MIC [3] of 64 µM (≈ 110 µg/mL) and an MIC (Acinetobacter baumannii) of 8 µM (≈ 13.8 µg/mL).
`CC[C@H](C)[C@H](NC(=O)[C@@H](N)CCCN=C(N)N)C(=O)N[C@@H](Cc1c[nH]c2ccccc12)C(=O)N[C@@H](Cc1ccccc1)C(=O)N[C@@H](CCC(N)=O)C(=O)N[C@@H](CC(N)=O)C(=O)N[C@@H](CCCN=C(N)N)C(=O)N[C@@H](CCCN=C(N)N)C(=O)N[C@@H](CCSC)C(=O)N[C@@H](CCCN=C(N)N)C(=O)N[C@@H](Cc1c[nH]c2ccccc12)C(=O)N[C@@H](CCCN=C(N)N)C(=O)N[C@@H](CCCN=C(N)N)C(N)=O` [RIWFQNRRMRWRR] showed an MIC [2] of 32 µM (≈ 62.7 µg/mL) and an MIC [7] of no less than 32 µM.
For `CC[C@H](C)[C@H](NC(=O)[C@H](CCC(N)=O)NC(=O)[C@H](CC(C)C)NC(=O)[C@H](CCC(N)=O)NC(=O)[C@@H](NC(=O)[C@H](CCCCN)NC(=O)[C@H](Cc1ccccc1)NC(=O)[C@H](Cc1c[nH]c2ccccc12)NC(=O)[C@@H](N)CCCN=C(N)N)[C@@H](C)CC)C(=O)N[C@@H](CCCN=C(N)N)C(=O)N[C@@H](CCCN=C(N)N)C(=O)N[C@@H](Cc1c[nH]c2ccccc12)C(=O)N[C@@H](CCCCN)C(=O)N[C@@H](CC(N)=O)C(=O)N[C@@H](CCCCN)C(=O)N[C@@H](CCCCN)C(N)=O` [RWFKIQLQIRRWKNKK], the MIC [2] was 32 µM (≈ 71.3 µg/mL) and the MIC [7] was 16 µM (≈ 35.6 µg/mL).
In the case of `NCCCC[C@H](NC(=O)[C@H](CCCCN)NC(=O)[C@H](Cc1c[nH]c2ccccc12)NC(=O)[C@H](CCCCN)NC(=O)[C@H](Cc1ccccc1)NC(=O)[C@H](CCCN=C(N)N)NC(=O)[C@H](Cc1c[nH]c2ccccc12)NC(=O)[C@@H](N)CCCN=C(N)N)C(=O)O` [RWRFKWKK], the MIC [1] is reported as greater than 0.081 mM, the MIC [2] is reported as greater than 81 µM and the MIC [5] is reported as greater than 81 µM. The MIC [10] was no less than 81 µM.
In the case of `CC[C@H](C)[C@H](NC(=O)[C@H](CCCCN)NC(=O)[C@H](CS)NC(=O)[C@H](C)NC(=O)[C@@H](NC(=O)[C@H](Cc1ccccc1)NC(=O)CNC(=O)[C@H](CC(C)C)NC(=O)CNC(=O)[C@@H](NC(=O)[C@H](CCCCN)NC(=O)CNC(=O)[C@H](CC(C)C)NC(=O)[C@H](CC(N)=O)NC(=O)[C@H](CCCCN)NC(=O)[C@H](CC(C)C)NC(=O)[C@@H](NC(=O)CNC(=O)[C@H](CC(C)C)NC(=O)[C@H](CCSC)NC(=O)[C@@H](N)CO)C(C)C)C(C)C)C(C)C)C(=O)N[C@@H](CC(N)=O)C(=O)N[C@@H](CCCCN)C(=O)N[C@@H](CCC(N)=O)C(=O)N[C@@H](CS)C(=O)O` [SMLGVLKNLGKVGLGFVACKINKQC], the MIC (Staphylococcus aureus) is reported as greater than 200 µM, the MIC (Candida albicans) is reported as 200 µM (≈ 524 µg/mL) and the MIC (Escherichia coli) is reported as 40 µM (≈ 105 µg/mL).
In the case of `CC[C@H](C)[C@H](NC(=O)[C@H](Cc1ccccc1)NC(=O)[C@@H](NC(=O)[C@H](Cc1ccccc1)NC(=O)[C@H](CCCN=C(N)N)NC(=O)[C@H](CCCCN)NC(=O)[C@H](CCCN=C(N)N)NC(=O)[C@H](CCCCN)NC(=O)[C@H](Cc1c[nH]c2ccccc12)NC(=O)[C@H](CC(C)C)NC(=O)[C@@H](NC(=O)[C@@H](N)Cc1ccc(O)cc1)C(C)C)[C@@H](C)CC)C(=O)O` [YVLWKRKRFIFI], the MIC (Bacillus subtilis) is reported as 20 µM (≈ 33.4 µg/mL), the MIC [11] is reported as 10 µM (≈ 16.7 µg/mL) and the MIC [5] is reported as 10 µM (≈ 16.7 µg/mL). The MIC [8] was 30 µM (≈ 50.1 µg/mL).
